# Measurements taken from patent publication US6583154B1, “Compounds and methods which modulate feeding behavior and related diseases” (Amgen Inc., priority 1998, dated 2003).
# Structures can show the parent of a compound that is named as a salt.
row,SMILES,melting point
1,"Cc1nc(N2CC=CCC2)c2[nH]c(-c3ccccc3)cc2n1 (as salt: hydrochloride) [Example 65, 2-Methyl-6-phenyl-4-(1,2,3,6-tetrahydropyridinyl)pyrrolo[3,2-d]pyrimidine Hydrochloride]",278 to 279 °C
2,"Cc1nc(N2CCOCC2)c2[nH]c(-c3ccc(F)c(F)c3)cc2n1 (as salt: hydrochloride) [Example 141, 4-[6-(3,4-Difluorophenyl)-2-methylpyrrolo[2,3-e]pyrimidin-4-yl]morpholine Hydrochloride]",> 280 °C
3,"Cc1nc(N2[C@H](C)CCC[C@@H]2C)c2[nH]c(-c3ccccc3)cc2n1 (as salt: hydrochloride) [Example 185, 4-((6S, 2R)-2,6-Dimethyl)-2-methyl-6-phenylpyrrolo[3,2-d]pyrimidine Hydrochloride]",> 270 °C
4,"c1ccc(-c2cc3nc(N4CCCCC4)nc(N4CCCCC4)c3[nH]2)cc1 (as salt: hydrochloride) [Example 208, 6-Phenyl-2,4-dipiperidylpyrrolo[3,2-d]pyrimidine Hydrochloride]",> 272 °C
5,Cc1nc(N2CCN(c3ccccc3)CC2)c2[nH]c(-c3ccccc3)cc2n1.Cl (hydrate or solvate),232 to 234.5 °C
6,Cc1nc(N2CCCCC2)c2[nH]c(-c3ccc(Cl)c(Cl)c3Cl)cc2n1.Cl (hydrate or solvate),264 to 266 °C
7,Cc1nc(N2CCCCC2)c2[nH]c(-c3ccccc3C(F)(F)F)cc2n1.Cl (hydrate or solvate),> 280 °C
8,Cc1nc(N2CCCCC2)c2[nH]c(-c3cc(F)cc(F)c3)cc2n1.Cl (hydrate or solvate),> 280 °C
9,Cc1nc(N2CCCCC2)c2[nH]c(-c3cnn(-c4ccccc4)c3C)cc2n1.Cl (hydrate or solvate),> 280 °C
10,Cc1nc(N2CCCCC2)c2[nH]c(-c3ccc(-c4ccc(F)c(Cl)c4)o3)cc2n1.Cl (hydrate or solvate),> 280 °C
11,Cc1nc(N2CCCCC2C)c2[nH]c(-c3ccc(F)cc3)cc2n1.Cl (stereo not shown) (hydrate or solvate),274 to 276 °C
12,Cc1nc(N2CCCCC2)c2[nH]c(CS(=O)(=O)c3ccc(Cl)cc3)cc2n1.Cl (hydrate or solvate),199 to 201 °C
13,Cc1nc(N2CCCCC2)c2[nH]c(-c3cc4ccccc4s3)cc2n1.Cl (hydrate or solvate),> 280 °C
14,Cc1nc2c3c(cc(-c4ccccc4)n3CC3CCCCN23)n1.Cl (stereo not shown) (hydrate or solvate),> 280 °C
15,Cc1nc(N2CCN(S(=O)(=O)c3cccc4ccccc34)CC2)c2[nH]c(-c3ccccc3)cc2n1.Cl (hydrate or solvate),195 °C (dec.)
16,CSc1nc(N2CCCCC2)c2[nH]c(-c3ccccc3)cc2n1.Cl (hydrate or solvate),281 to 283 °C (dec.)
17,Cc1nc(N2CCC2)c2[nH]c(-c3ccccc3)cc2n1.Cl (hydrate or solvate),> 300 °C (dec.)
18,Cl.c1ccc(-c2cc3ncnc(N4CCCCC4)c3[nH]2)nc1 (hydrate or solvate),279 to 280 °C
19,Cc1nc(N2CCCCC2)c2[nH]c(-c3cnccn3)cc2n1.Cl (hydrate or solvate),280 to 283.5 °C
20,Cl.c1cnc(-c2cc3ncnc(N4CCCCC4)c3[nH]2)cn1 (hydrate or solvate),> 280 °C
21,Cl.c1ccc2oc(-c3cc4ncnc(N5CCCCC5)c4[nH]3)cc2c1 (hydrate or solvate),278.5 to 281 °C
22,Cl.c1ccc(-c2[nH]c3c(N4CCCCC4)ncnc3c2-c2ccccc2)cc1 (hydrate or solvate),266 to 268.5 °C
23,Cl.FC(F)(F)c1nc(N2CCCCC2)c2[nH]c(-c3ccccc3)cc2n1 (hydrate or solvate),235.1 to 237.5 °C (dec.)
24,"CCc1nc(N2CCCCC2)c2[nH]c(-c3ccccc3)cc2n1.Cl (hydrate or solvate) [Example 68c, 2-Ethyl-6-phenyl-4-piperidylpyrrolo[3,2-d]pyrimidine Hydrochloride Monohydrate]",286 to 288 °C (dec.)
25,"Cc1nc(N2CCCCC2)c2[nH]c(-c3ccccn3)cc2n1.Cl (hydrate or solvate) [Example 77, 2-Methyl-4-piperidyl-6-(2-pyridyl)pyrrolo[3,2-d]pyrimidine Hydrochloride Hydrate]",> 280 °C
26,"Cc1nc(N2CCCCC2)c2[nH]c(C3CCCCC3)cc2n1.Cl (hydrate or solvate) [Example 80d, 6-Cyclohexyl-2-methyl-4-piperidylpyrrolo[3,2-d]pyrimidine Hydrochloride Hydrate]",> 280 °C
27,"Cc1nc(N2CCCCC2)c2[nH]c(C34C[C@H]5C[C@@H](C3)C[C@@H](C4)C5)cc2n1.Cl (hydrate or solvate) [Example 81d, 6-Adamantanyl-2-methyl-4-piperidylpyrrolo[3,2-d]pyrimidine Hydrochloride Monohydrate]",> 280 °C
28,"Cc1nc(N2CCCCC2)c2[nH]c(-c3cc4ccccc4o3)cc2n1.Cl (hydrate or solvate) [Example 85, 2-(2-Methyl-4-piperidylpyrrolo[4,5-d]pyrimidin-6-yl)benzo[b]furan Hydrochloride Monohydrate]",> 280 °C
29,"Cc1nc(N2CCCCC2)c2[nH]c(C(C)(C)C)cc2n1.Cl (hydrate or solvate) [Example 97, 6-(tert-Butyl)-2-methyl-4-piperidylpyrrolo[3,2-d]pyrimidine Hydrochloride Hydrate]",256 to 258 °C

# The remaining lines, values ahead:
row,melting point,SMILES
1,239 to 240 °C,"Cc1nc(N2CCCCC2)c2[nH]c(-c3ccccc3)c(Br)c2n1 (as salt: hydrochloride) [Example 211, 7-Bromo-2-methyl-6-phenyl-4-piperidylpyrrolo[3,2-d]pyrimidine Hydrochloride]"
2,> 280 °C,Cc1nc(N2CCCCC2)c2[nH]c(-c3ccc(-c4ccccc4)cc3)cc2n1.Cl (hydrate or solvate)
3,> 280 °C,Cc1nc(N2CCCCC2)c2[nH]c(-c3c(F)cccc3F)cc2n1.Cl (hydrate or solvate)
4,279 to 281 °C,Cc1nc(N2CCCCC2)c2[nH]c(-c3cc(F)ccc3F)cc2n1.Cl (hydrate or solvate)
5,240 to 241.5 °C,Cc1nc(N2CCCCC2)c2[nH]c(-c3ccccc3Cl)cc2n1.Cl (hydrate or solvate)
6,> 280 °C,Cc1nc(N2CCCCC2)c2[nH]c(-c3ccc(O)c(F)c3)cc2n1.Cl (hydrate or solvate)
7,175 to 177 °C,Cc1nc(N2CCCCC2)c2[nH]c(-c3ccc4c(c3)CCCC4)cc2n1.Cl (hydrate or solvate)
8,272 to 273.5 °C,Cc1nc(N2CCCCC2)c2[nH]c(-c3sc(C)nc3C)cc2n1.Cl (hydrate or solvate)
9,> 280 °C,Cc1nc(N2CCCCC2)c2[nH]c(-c3ccc(Cl)c(Cl)c3)c(C)c2n1.Cl (hydrate or solvate)
10,242 to 245 °C,Cc1nc(N2CCCCC2)c2[nH]c(-c3cc(F)cc(F)c3)c(C)c2n1.Cl (hydrate or solvate)
11,241 to 243 °C,COc1cccc(-c2cc3nc(C)nc(N4CCCCC4)c3[nH]2)c1.Cl (hydrate or solvate)
12,> 280 °C,Cc1nc(N2CCCCC2)c2[nH]c(-c3cccc(O)c3)cc2n1.Cl (hydrate or solvate)
13,261 to 263 °C,CCc1c(-c2ccccc2)[nH]c2c(N3CCCCC3)nc(C)nc12.Cl (hydrate or solvate)
14,261 to 263 °C,COc1ccccc1-c1cc2nc(C)nc(N3CCCCC3)c2[nH]1.Cl (hydrate or solvate)
15,> 280 °C,Cc1nc(N2CCCCC2)c2[nH]c(-c3ccc(Cl)cc3)c(N3CCCC3)c2n1.Cl (hydrate or solvate)
16,> 280 °C,Cc1nc(N2CCCCC2)c2[nH]c(-c3sc4ccccc4c3C)cc2n1.Cl (hydrate or solvate)
17,170 °C (dec.),COc1ccc(-c2c(C)[nH]c3c(N4CCCCC4)nc(C)nc23)cc1.Cl (hydrate or solvate)
18,> 280 °C,Cc1nc(N2CCCCC2)c2[nH]c(-c3cccnc3)cc2n1.Cl (hydrate or solvate)
19,> 280 °C,Cc1ccc2sc(-c3cc4nc(C)nc(N5CCCCC5)c4[nH]3)c(C)c2c1.Cl (hydrate or solvate)
20,> 280 °C,COc1cccc2cc(-c3cc4nc(C)nc(N5CCCCC5)c4[nH]3)oc12.Cl (hydrate or solvate)
21,> 280 °C,Cc1nc(N2CCCCC2)c2[nH]c(C)c(Oc3ccccc3)c2n1.Cl (hydrate or solvate)
22,> 240 °C (dec.),Cc1nc(N2CCCCC2)c2[nH]c(C)c(Cc3ccccc3)c2n1.Cl (hydrate or solvate)
23,268 to 269 °C,Cc1nc(N2CCCCC2)c2[nH]c(-c3ccc4c(c3)OCO4)c(C)c2n1.Cl (hydrate or solvate)
24,169 to 171 °C,Cc1nc(N2CCCCC2)c2[nH]c(-c3ccccc3)c(-c3ccccc3)c2n1.Cl (hydrate or solvate)
25,240 to 241.5 °C,Cc1nc(N2CCCCC2)c2[nH]c(-c3cc(C)sc3C)cc2n1.Cl (hydrate or solvate)
26,244.5 to 246 °C (dec.),"Cc1nc(N2CCCCC2)c2[nH]c(-c3cccc(Cl)c3)cc2n1.Cl (hydrate or solvate) [Example 70e, 6-(3-Chlorophenyl)-2-methyl-4-piperidylpyrrolo[3,2-d]pyrimidine Hydrochloride Monohydrate]"
27,267.5 to 268 °C (dec.),"COc1ccc(-c2cc3nc(C)nc(N4CCCCC4)c3[nH]2)cc1.Cl (hydrate or solvate) [Example 71e, 4-Methoxy-1-(2-methyl-4-piperidylpyrrolo[4,5-d]pyrimidin-6-yl)benzene Hydrochloride Monohydrate]"
28,> 300 °C (dec.),"Cc1nc(N2CCCCC2)c2[nH]c(-c3ccc(O)cc3)cc2n1.Cl (hydrate or solvate) [Example 72, 2-methyl-4-piperidyl-6-(4-hydroxyphenyl)pyrrolo[3,2-d]pyrimidine]"
29,> 280 °C,"Cc1nc(N2CCCCC2)c2[nH]c(-c3ccccc3)c(C)c2n1.Cl (hydrate or solvate) [Example 90, 2,7-Dimethyl-6-phenyl-4-piperidylpyrrolo[3,2-d]pyrimidine Hydrochloride Monohydrate]"
